Assay results reported in US8809341B2, “2,4-pyrimidinediamine compounds and uses as anti-proliferative agents” (Rigel Pharmaceuticals, Inc., priority 2003, dated 2014).
Like-named read-outs stand apart in the source and are kept apart here.

How the values were obtained:
Type in all cases: cell-based
A549 cells = assay: in vitro antiproliferation assay, A549 (lung)
Summary of the method: (§1)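 Standard in vitro antiproliferation assays on tumour cell lines, including A549 and H1299 (both lung); IC50 values determined.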

H1299 cells = assay: in vitro antiproliferation assay, H1299 (lung)
Summary of the method: as §1

HCT116 = assay: in vitro antiproliferation assay, HCT116 (colon)
Method: The IC50 values of various compounds against a various different tumor cell lines were determined using standard in vitro antiproliferation assays. The tumor cell lines tested were as follows: A549 (lung); H1299 (lung), ACHN (kidney/p53 wt), CAKI (renal cell carcinoma), NCI-H460 (lung); HCT116 (colon/p53w0; HELA (cervix/p53 wt), HUH7 (liver/p53 wt), HUVEC (primary endothelial), LNCAP (prostate), HT-29 (colon); MCF-7 (breast); MCF-7 (breast/ER positive), MDA MB435S (breast); MDA MB231 (breast/ER negative), DU145 (prostate); BxPC-3 (pancreatic); SKOV-3 (ovarian); HepG2 (hepatic), NDHF primary normal human dermal fibroblast), SKMEL28 (breast/p53mut), SKMEL5 (breast/p53 wt), U20S (bone) and PC3 (prostate). […] A blank indicates the specified compound was not tested against the specified cell line.
Many of the compounds were tested against other cell lines. Their activity is reported in TABLE 15, below, where +”, “−”, “−/+” or “+/−” values are as described for TABLES 1-14. Where the cell line includes a value in a parenthetical, the value indicates the seeding density at which the assay was performed

[1] = IC50 class against A549 (lung) tumor cells
[2] = IC50 class against H1299 (lung) tumor cells
[3] = HCT116 (colon), read-out: HCT116
[4] = in vitro antiproliferation, A549 (lung) cells, Table 4, compounds with no designated stereochemistry tested as racemate
[5] = Table 5, in vitro antiproliferation, A549 (lung) cells
[6] = Table 5, in vitro antiproliferation, H1299 (lung) cells
[7] = Table 7, in vitro antiproliferation, A549 (lung) cells
[8] = Table 7, in vitro antiproliferation, colon cells, read-out: HTC116
[9] = A549 (lung) cells, in vitro antiproliferation

## COC(=O)N1CCN(c2ccc(Nc3ncc(F)c(NC4CC4)n3)cc2)CC1 [compound 104]
A549 cells; [1]
  IC50: ≤ 20 µM
H1299 cells; [2]
  IC50: ≤ 20 µM
HCT116; [3]
  IC50: > 20 µM

## O=C(COc1cccc(Nc2ncc(F)c(NC3CCC3)n2)c1)NC1CC1 [compound 110]
A549 cells; [1]
  IC50: ≤ 20 µM
H1299 cells; [2]
  IC50: ≤ 20 µM
HCT116; [3]
  IC50: ≤ 20 µM

## Fc1cnc(Nc2ccc(Cl)c(Cl)c2)nc1NC1CCC1 [compound 111]
A549 cells; [1]
  IC50: ≤ 20 µM
H1299 cells; [2]
  IC50: ≤ 20 µM
HCT116; [3]
  IC50: ≤ 20 µM

## COc1ccc(Nc2ncc(F)c(NC3CCC3)n2)cc1Cl [compound 112]
A549 cells; [1]
  IC50: ≤ 20 µM
H1299 cells; [2]
  IC50: ≤ 20 µM
HCT116; [3]
  IC50: ≤ 20 µM

## CNC(=O)COc1cccc(Nc2ncc(F)c(Nc3ccc4c(c3)NC(=O)[C@H](C)O4)n2)c1 [compound 300]
A549 cells; [4]
  IC50: ≤ 20 µM
HCT116; [3]
  IC50: ≤ 20 µM

## COc1cc(Nc2ncc(F)c(Nc3ccc4c(c3)NC(=O)C(C)(C)O4)n2)cc(OC)c1 [compound 305]
A549 cells; [4]
  IC50: ≤ 20 µM
HCT116; [3]
  IC50: ≤ 20 µM

## Cc1c(Cl)cc(Nc2ncc(F)c(Nc3ccc4c(c3)NC(=O)C(C)(C)O4)n2)cc1Cl [compound 306]
A549 cells; [4]
  IC50: ≤ 20 µM
H1299 cells; in vitro antiproliferation, H1299 (lung) cells, Table 4, compounds with no designated stereochemistry tested as racemate
  IC50: ≤ 20 µM
HCT116; [3]
  IC50: > 20 µM

## COc1c(Cl)cc(Nc2ncc(F)c(Nc3ccc4c(c3)NC(=O)C(C)(C)O4)n2)cc1Cl [compound 307]
A549 cells; [4]
  IC50: ≤ 20 µM
HCT116; [3]
  IC50: ≤ 20 µM

## COc1cc(Nc2ncc(F)c(Nc3ccc4c(c3)NC(=O)C(C)(C)O4)n2)cc(C(F)(F)F)c1 [compound 309]
A549 cells; [4]
  IC50: ≤ 20 µM
HCT116; [3]
  IC50: ≤ 20 µM

## Cc1cc(C)cc(Nc2ncc(F)c(Nc3ccc4c(c3)NC(=O)C(C)(C)O4)n2)c1 [compound 310]
A549 cells; [4]
  IC50: ≤ 20 µM
HCT116; [3]
  IC50: ≤ 20 µM

## CC(=O)N1CCN(c2ccc(Nc3ncc(F)c(Nc4ccc5c(n4)NC(=O)C(C)(C)O5)n3)cc2)CC1 [compound 432]
HCT116; [3]
  IC50: ≤ 20 µM

## CN1CCN(c2ccc(Nc3ncc(F)c(Nc4ccc5c(n4)NC(=O)CO5)n3)cc2)CC1 [compound 435]
HCT116; [3]
  IC50: ≤ 20 µM

## CN1CCN(c2ccc(Nc3ncc(F)c(Nc4ccc5c(n4)NC(=O)C(C)(C)O5)n3)cc2)CC1 [compound 436]
HCT116; [3]
  IC50: ≤ 20 µM

## O=C(COc1cccc(Nc2ncc(F)c(Nc3ccc4c(c3)OCCO4)n2)c1)N1CCOCC1 [compound 493]
A549 cells; [5]
  IC50: < 20 µM
H1299 cells; [6]
  IC50: ≤ 20 µM
HCT116; [3]
  IC50: < 20 µM

## Fc1cnc(Nc2cccc(OCCN3CCOCC3)c2)nc1Nc1ccc2c(c1)OCCO2 [compound 494]
A549 cells; [5]
  IC50: ≤ 20 µM
H1299 cells; [6]
  IC50: ≤ 20 µM
HCT116; [3]
  IC50: ≤ 20 µM

## CNC(=O)COc1cccc(Nc2ncc(F)c(Nc3ccc4c(c3)OCCO4)n2)c1 [compound 495]
A549 cells; [5]
  IC50: < 20 µM
H1299 cells; [6]
  IC50: ≤ 20 µM
HCT116; [3]
  IC50: ≤ 20 µM

## O=C(COc1cccc(Nc2ncc(F)c(Nc3ccc4c(c3)OCCO4)n2)c1)N1CCNCC1 [compound 497]
A549 cells; [5]
  IC50: ≤ 20 µM
HCT116; [3]
  IC50: > 20 µM

## NC(=O)COc1cccc(Nc2ncc(F)c(Nc3ccc4c(c3)OCCO4)n2)c1 [compound 504]
A549 cells; [5]
  IC50: ≤ 20 µM
HCT116; [3]
  IC50: ≤ 20 µM

## COc1cc(Nc2ncc(F)c(Nc3ccc4c(c3)OCCO4)n2)cc(OC)c1OC [compound 506]
A549 cells; [5]
  IC50: ≤ 20 µM
HCT116; [3]
  IC50: > 20 µM

## Oc1c(Cl)cc(Nc2ncc(F)c(Nc3ccc4c(c3)OCCO4)n2)cc1Cl [compound 507]
A549 cells; [5]
  IC50: ≤ 20 µM
HCT116; [3]
  IC50: > 20 µM

## Cc1cc(C)cc(Nc2ncc(F)c(Nc3ccc4c(c3)OCCO4)n2)c1 [compound 527]
A549 cells; [5]
  IC50: ≤ 20 µM
HCT116; [3]
  IC50: ≤ 20 µM

## Cc1cc(Nc2ncc(F)c(Nc3ccc4c(c3)OCCO4)n2)cc(C)c1Cl [compound 528]
A549 cells; [5]
  IC50: ≤ 20 µM
HCT116; [3]
  IC50: ≤ 20 µM

## OCc1cc(CO)cc(Nc2ncc(F)c(Nc3ccc4c(c3)OCCO4)n2)c1 [compound 529]
A549 cells; [5]
  IC50: ≤ 20 µM
H1299 cells; [6]
  IC50: ≤ 20 µM
HCT116; [3]
  IC50: ≤ 20 µM

## OCc1cc(CO)cc(Nc2ncc(F)c(Nc3ccc4c(c3)OC(F)(F)C(F)(F)O4)n2)c1 [compound 534]
H1299 cells; [6]
  IC50: ≤ 20 µM
HCT116; [3]
  IC50: ≤ 20 µM

## OCCOc1cccc(Nc2ncc(F)c(Nc3ccc4c(c3)OCCCO4)n2)c1 [compound 581]
A549 cells; [5]
  IC50: ≤ 20 µM
HCT116; [3]
  IC50: ≤ 20 µM

## CC(C)Oc1cccc(Nc2nc(Nc3ccc4oc(C(=O)N5CCOCC5)cc4c3)ncc2F)c1 [compound 625]
A549 cells; [7]
  IC50: ≤ 20 µM
HCT116; [8]
  IC50: ≤ 20 µM

## O=C(c1cc2cc(Nc3ncc(F)c(Nc4ccc5c(c4)OCCO5)n3)ccc2o1)N1CCOCC1 [compound 626]
A549 cells; [7]
  IC50: < 20 µM
HCT116; [3]
  IC50: ≤ 20 µM
HCT116; [8]
  IC50: ≤ 20 µM

## CNC(=O)c1cc2cc(Nc3ncc(F)c(Nc4ccc5c(c4)OCCO5)n3)ccc2o1 [compound 629]
A549 cells; [7]
  IC50: ≤ 20 µM
HCT116; [3]
  IC50: ≤ 20 µM
HCT116; [8]
  IC50: ≤ 20 µM

## O=C(NCCO)c1cc2cc(Nc3ncc(F)c(Nc4ccc5c(c4)OCCO5)n3)ccc2o1 [compound 631]
A549 cells; [7]
  IC50: ≤ 20 µM
HCT116; [3]
  IC50: ≤ 20 µM
HCT116; [8]
  IC50: ≤ 20 µM

## O=C(c1cc2cc(Nc3ncc(F)c(Nc4ccc5c(c4)OCCO5)n3)ccc2o1)N1CCNCC1 [compound 632]
A549 cells; [7]
  IC50: ≤ 20 µM
HCT116; [3]
  IC50: ≤ 20 µM
HCT116; [8]
  IC50: ≤ 20 µM

## O=C(c1cc2cc(Nc3ncc(F)c(Nc4cccc(O)c4)n3)ccc2o1)N1CCNCC1 [compound 633]
A549 cells; [7]
  IC50: ≤ 20 µM
HCT116; [3]
  IC50: ≤ 20 µM
HCT116; [8]
  IC50: ≤ 20 µM

## COC(=O)c1cc2cc(Nc3ncc(F)c(Nc4cccc(O)c4)n3)ccc2o1 [compound 636]
A549 cells; [7]
  IC50: ≤ 20 µM
HCT116; [3]
  IC50: > 20 µM
HCT116; [8]
  IC50: > 20 µM

## CCOC(=O)c1cc2cccc(Nc3ncc(F)c(Nc4ccc5c(c4)OCCO5)n3)c2[nH]1 [compound 647]
A549 cells; [7]
  IC50: ≤ 20 µM
HCT116; [3]
  IC50: ≤ 20 µM
HCT116; [8]
  IC50: ≤ 20 µM

## CCOC(=O)c1cc2cccc(Nc3ncc(F)c(Nc4cccc(O)c4)n3)c2[nH]1 [compound 648]
A549 cells; [7]
  IC50: ≤ 20 µM
HCT116; [8]
  IC50: ≤ 20 µM

## COC(=O)c1cc2cc(Nc3ncc(F)c(Nc4ccc(Cl)cc4)n3)ccc2o1 [compound 651]
A549 cells; [7]
  IC50: > 20 µM
HCT116; [3]
  IC50: > 20 µM

## COC(=O)c1cc2cc(Nc3ncc(F)c(Nc4ccc(Cl)c(Cl)c4)n3)ccc2o1 [compound 652]
A549 cells; [7]
  IC50: > 20 µM
HCT116; [3]
  IC50: > 20 µM

## COc1cc(Nc2nc(Nc3cccc4cc(C(=O)N(C)CCO)[nH]c34)ncc2F)cc(OC)c1 [compound 659]
A549 cells; [7]
  IC50: ≤ 20 µM
H1299 cells; Table 7, in vitro antiproliferation, H1299 (lung) cells
  IC50: ≤ 20 µM
HCT116; [8]
  IC50: ≤ 20 µM

## COC(=O)c1cc2cc(Nc3ncc(F)c(Nc4ccc5c(c4)NC(=O)C(C)(C)O5)n3)ccc2o1 [compound 677]
A549 cells; [7]
  IC50: ≤ 20 µM
HCT116; [3]
  IC50: > 20 µM
HCT116; [8]
  IC50: > 20 µM

## COc1ccc(Nc2ncc(F)c(Nc3ccc(OC)c(OC)c3)n2)cc1OC [compound 710]
A549 cells; [9]
  IC50: ≤ 20 µM
HCT116; [3]
  IC50: ≤ 20 µM

## Fc1cnc(Nc2cccc(Cl)c2)nc1Nc1cccc(Cl)c1 [compound 717]
A549 cells; [9]
  IC50: ≤ 20 µM
HCT116; [3]
  IC50: > 20 µM

## CNC(=O)COc1cccc(Nc2ncc(F)c(Nc3cccc(O)c3)n2)c1 [compound 732]
A549 cells; [9]
  IC50: ≤ 20 µM
HCT116; [3]
  IC50: ≤ 20 µM

## CNC(=O)COc1cccc(Nc2ncc(F)c(Nc3cccc(OC)c3)n2)c1 [compound 755]
A549 cells; [9]
  IC50: ≤ 20 µM
HCT116; [3]
  IC50: ≤ 20 µM

## COc1cc(Nc2ncc(F)c(Nc3cc(OC)cc(OC)c3)n2)cc(OC)c1 [compound 839]
A549 cells; [9]
  IC50: ≤ 20 µM
HCT116; [3]
  IC50: ≤ 20 µM

## COc1cc(Nc2nc(Nc3cc(Cl)cc(Cl)c3)ncc2F)cc(OC)c1 [compound 847]
A549 cells; [9]
  IC50: ≤ 20 µM
HCT116; [3]
  IC50: ≤ 20 µM

## COc1cc(Nc2nc(Nc3cc(C)cc(C(F)(F)F)c3)ncc2F)cc(OC)c1 [compound 848]
A549 cells; [9]
  IC50: ≤ 20 µM
HCT116; [3]
  IC50: ≤ 20 µM

## CNC(=O)COc1cccc(Nc2ncc(F)c(Nc3cc(C)c(O)c(Cl)c3)n2)c1 [compound 991]
A549 cells; A549 (lung) cells, antiproliferation
  IC50: ≤ 20 µM
HCT116; [3]
  IC50: ≤ 20 µM
